# Assay results: ChEMBL document CHEMBL1201862, “PubChem BioAssay data set” (2004)
# Calls of active or inactive are those of the source.
# Assays:
# SN12K1 = test: cells; type: functional; conditions: Homo sapiens
# P388/ADR = test: cells; type: functional; conditions: Mus musculus
# P388 = test: cells; type: functional; conditions: Mus musculus
# Streptokinase A = biological target: T1, Streptokinase A (Streptococcus pyogenes serotype M1, UniProt P10520); test: viability-normalized secreted streptokinase activity reduction – plasminogen activation absorbance, OD405, dose response (AID 1914); type: functional, Streptococcus pyogenes M1 GAS;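 note: secreted streptokinase activity via plasminogen activation per viability signal from cell pellet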
# T1 sequence (P10520 whole entry): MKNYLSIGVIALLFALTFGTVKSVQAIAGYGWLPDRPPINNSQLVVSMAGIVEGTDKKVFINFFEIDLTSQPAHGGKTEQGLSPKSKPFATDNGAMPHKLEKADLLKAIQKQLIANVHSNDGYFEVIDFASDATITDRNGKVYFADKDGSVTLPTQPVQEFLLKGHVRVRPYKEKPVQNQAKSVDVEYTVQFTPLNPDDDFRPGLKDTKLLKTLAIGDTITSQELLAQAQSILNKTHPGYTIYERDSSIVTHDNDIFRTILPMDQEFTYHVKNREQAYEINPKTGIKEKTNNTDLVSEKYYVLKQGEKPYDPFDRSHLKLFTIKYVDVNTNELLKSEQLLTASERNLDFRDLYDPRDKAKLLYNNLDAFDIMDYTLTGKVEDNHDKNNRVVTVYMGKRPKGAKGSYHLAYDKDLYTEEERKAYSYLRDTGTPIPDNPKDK
# Streptococcus = test: GAS UMAA2166 growth inhibition – luminescence, BacTiterGlo, counter-screen for streptokinase expression inhibitor project, dose response (AID 1915); type: functional, organism-based;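 note: potency for reduction of bacterial viability or growth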
# Genome polyprotein = Genome polyprotein (dengue virus type 2, UniProt P29990); test: flavivirus cap methylation enzyme inhibition – biochemical, confirmation dose response, primary screen (AID 588689); type: functional
# [1] = biological target: T2, Small ubiquitin-related modifier 1 (Homo sapiens, UniProt P63165); test: SUMO1 protein interaction blockers, potency – biochemical, fluorescence polarization, uHTS hits, dose response (AID 624382); type: functional; conditions: read-out: IC50_Mean
# Vero = test: viability of Vero cells under compound – cytotoxicity control for flavivirus capping enzyme inhibitors (AID 588742); type: functional; conditions: Chlorocebus sabaeus
# [2] = biological target: Eukaryotic translation initiation factor 4E (Mus musculus, UniProt P63073); test: blockers of eIF4G binding by eIF4E – biochemical, TR-FRET, dose response (AID 855); type: functional;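 note: potency for disrupting eIF4E binding to eIF4GI seen as loss of FRET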
# Aminopeptidase N = biological target: T3, Aminopeptidase N (Plasmodium falciparum FcB1/Columbia, UniProt O96935); test: malaria alanyl aminopeptidase activity blockers – biochemical, fluorogenic H-Leu-NHMec substrate, 1536-well (AID 1445); set-up: species or system Plasmodium falciparum 3D7, 3D7
# T3 sequence (O96935 whole entry): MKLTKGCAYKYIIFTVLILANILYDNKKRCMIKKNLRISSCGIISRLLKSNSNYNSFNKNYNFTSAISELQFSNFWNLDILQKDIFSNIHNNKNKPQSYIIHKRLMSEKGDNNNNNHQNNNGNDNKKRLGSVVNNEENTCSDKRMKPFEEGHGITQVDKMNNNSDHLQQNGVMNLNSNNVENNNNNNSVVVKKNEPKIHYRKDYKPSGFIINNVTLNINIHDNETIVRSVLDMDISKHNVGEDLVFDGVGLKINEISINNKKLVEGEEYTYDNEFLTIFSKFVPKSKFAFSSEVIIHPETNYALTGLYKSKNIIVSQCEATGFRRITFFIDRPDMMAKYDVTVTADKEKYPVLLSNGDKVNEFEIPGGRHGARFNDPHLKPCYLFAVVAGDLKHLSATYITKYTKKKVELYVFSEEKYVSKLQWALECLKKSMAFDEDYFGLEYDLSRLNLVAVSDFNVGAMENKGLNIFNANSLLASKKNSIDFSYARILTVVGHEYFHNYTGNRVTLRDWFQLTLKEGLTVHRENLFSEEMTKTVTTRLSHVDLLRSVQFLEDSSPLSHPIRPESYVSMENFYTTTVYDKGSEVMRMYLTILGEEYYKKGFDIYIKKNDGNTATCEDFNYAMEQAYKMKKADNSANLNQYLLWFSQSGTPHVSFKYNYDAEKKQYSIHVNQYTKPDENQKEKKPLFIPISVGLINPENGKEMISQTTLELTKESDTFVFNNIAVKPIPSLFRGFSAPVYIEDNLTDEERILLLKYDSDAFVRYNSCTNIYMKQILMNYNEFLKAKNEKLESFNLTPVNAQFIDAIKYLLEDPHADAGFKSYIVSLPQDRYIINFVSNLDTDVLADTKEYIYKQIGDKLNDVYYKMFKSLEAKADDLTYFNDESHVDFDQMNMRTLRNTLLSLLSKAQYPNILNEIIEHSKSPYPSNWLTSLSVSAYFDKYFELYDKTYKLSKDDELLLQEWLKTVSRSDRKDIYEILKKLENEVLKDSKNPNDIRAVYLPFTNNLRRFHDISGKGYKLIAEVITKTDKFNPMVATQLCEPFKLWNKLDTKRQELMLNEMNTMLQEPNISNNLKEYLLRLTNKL
# [3] = biological target: T2, Small ubiquitin-related modifier 1; test: SUMO1 protein-protein binding blockers, potency – biochemical, FRET, dose response (AID 624383); type: functional; conditions: read-out: IC50_Mean
# [4] = biological target: Induced myeloid leukemia cell differentiation protein Mcl-1 (Homo sapiens, UniProt Q07820); type: functional
# [5] = test system: Streptococcus sp. 'group A'; test: Streptococcus pyogenes SK(-)GAS viability under kanamycin – luminescence, BacTiterGlo, confirmation, counter-screen for streptokinase expression inhibitor project, dose response (AID 1900); type: functional, organism-based
# cells [6] = type: functional, cell-based
# [7] = biological target: T4, Trace amine-associated receptor 1 (Homo sapiens, UniProt Q96RJ0); test: Counterscreen for agonists of the human trace amine associated receptor 1 (hTAAR1): Fluorescence-based cell-based high throughput dose response assay to identify hTAAR1 agonist that also desensitize TAAR1 receptor response.; type: functional
# T4 sequence (Q96RJ0 whole entry): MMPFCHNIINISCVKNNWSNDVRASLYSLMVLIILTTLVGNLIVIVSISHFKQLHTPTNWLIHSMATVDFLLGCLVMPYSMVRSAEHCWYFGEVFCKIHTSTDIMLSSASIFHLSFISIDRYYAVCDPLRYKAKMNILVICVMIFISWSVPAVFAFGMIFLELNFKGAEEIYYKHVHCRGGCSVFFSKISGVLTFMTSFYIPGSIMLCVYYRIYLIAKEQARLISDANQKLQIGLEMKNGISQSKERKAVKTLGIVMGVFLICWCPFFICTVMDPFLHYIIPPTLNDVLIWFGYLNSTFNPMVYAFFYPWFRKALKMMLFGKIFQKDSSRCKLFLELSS
# cells [8] = type: functional, cell-based; remark: listed apart in the source
# [9] = biological target: T4, Trace amine-associated receptor 1; test: Fluorescence-based cell-based high throughput dose response assay to identify agonists of the human trace amine associated receptor 1 (TAAR1).; type: functional
# [10] = cAMP pathway inhibition in counterscreen cell line – TR-FRET cAMP detection, counter-screen for MC4R biased antagonist project, dose response (AID 602305); type: functional, cell-based;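 note: U2OS cells stimulated with forskolin near its EC80 as the cAMP inducer; potency is for inhibition of forskolin-stimulated cAMP signaling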
# Melanocortin receptor 4 = Melanocortin receptor 4 (Homo sapiens, UniProt P32245); test: inhibitors of MC4R cAMP signaling – cell-based, TR-FRET, biased antagonists, dose response (AID 602298); type: functional;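 note: antagonist potency against agonist-stimulated cAMP production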
# INS1 = test: INS-1E survival protection against cytokine death – cell-based, luminescence, retest, dose response (AID 449756); type: functional; conditions: Rattus norvegicus, INS1;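 note: cell death triggered by IL-1 beta plus TNF-alpha plus IFN-gamma mixture; protective hits raise ATP signal compared with cytokine alone wells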
# [11] = biological target: T5, Apoptotic protease-activating factor 1 (Homo sapiens, UniProt O14727); type: functional
# T5 sequence (O14727 whole entry): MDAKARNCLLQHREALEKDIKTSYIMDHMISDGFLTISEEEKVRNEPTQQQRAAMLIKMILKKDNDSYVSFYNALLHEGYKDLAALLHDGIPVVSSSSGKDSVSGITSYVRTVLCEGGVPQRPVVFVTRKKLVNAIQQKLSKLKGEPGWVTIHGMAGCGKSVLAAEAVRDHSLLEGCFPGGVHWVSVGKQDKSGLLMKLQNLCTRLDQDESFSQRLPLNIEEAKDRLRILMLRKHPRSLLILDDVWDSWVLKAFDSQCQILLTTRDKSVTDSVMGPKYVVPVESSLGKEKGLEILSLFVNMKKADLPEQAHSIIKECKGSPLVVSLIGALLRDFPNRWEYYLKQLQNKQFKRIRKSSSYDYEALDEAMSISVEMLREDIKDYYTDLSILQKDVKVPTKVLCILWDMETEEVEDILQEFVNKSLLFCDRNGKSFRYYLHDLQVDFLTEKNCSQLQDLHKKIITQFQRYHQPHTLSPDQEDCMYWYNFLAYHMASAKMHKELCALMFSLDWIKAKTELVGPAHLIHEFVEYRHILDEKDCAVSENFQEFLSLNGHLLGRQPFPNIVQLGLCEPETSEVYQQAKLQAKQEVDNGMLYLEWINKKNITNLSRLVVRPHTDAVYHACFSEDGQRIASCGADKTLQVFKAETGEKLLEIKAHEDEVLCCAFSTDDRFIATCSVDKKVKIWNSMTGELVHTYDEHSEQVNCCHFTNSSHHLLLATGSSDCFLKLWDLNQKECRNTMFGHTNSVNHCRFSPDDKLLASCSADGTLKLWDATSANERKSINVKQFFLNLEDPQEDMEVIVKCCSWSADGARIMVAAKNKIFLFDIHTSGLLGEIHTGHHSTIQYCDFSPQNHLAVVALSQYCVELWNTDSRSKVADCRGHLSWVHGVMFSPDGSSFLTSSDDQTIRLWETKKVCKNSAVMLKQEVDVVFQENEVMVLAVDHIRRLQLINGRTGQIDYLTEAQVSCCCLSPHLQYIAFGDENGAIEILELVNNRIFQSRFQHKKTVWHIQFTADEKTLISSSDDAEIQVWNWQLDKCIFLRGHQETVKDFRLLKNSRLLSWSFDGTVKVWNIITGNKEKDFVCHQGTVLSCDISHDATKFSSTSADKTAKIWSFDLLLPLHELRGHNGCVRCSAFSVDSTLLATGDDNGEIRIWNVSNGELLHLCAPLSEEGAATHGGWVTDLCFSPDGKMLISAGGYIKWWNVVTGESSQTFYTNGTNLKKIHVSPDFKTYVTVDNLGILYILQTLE
# Protein Wnt-3a = Protein Wnt-3a (Mus musculus, UniProt P27467); test: antagonism of Wnt3a pathway luciferase reporter – Wnt-LIGHT cells, luminescence, selectivity assay for Gli-SUFU antagonist project, dose response (AID 651570); type: functional; conditions: read-out: IC50_Mean;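 note: Wnt-LIGHT reporter cells stimulated with conditioned medium from Wnt3a-producing cells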
# Chain of Protein Wnt-3a (P27467 whole entry): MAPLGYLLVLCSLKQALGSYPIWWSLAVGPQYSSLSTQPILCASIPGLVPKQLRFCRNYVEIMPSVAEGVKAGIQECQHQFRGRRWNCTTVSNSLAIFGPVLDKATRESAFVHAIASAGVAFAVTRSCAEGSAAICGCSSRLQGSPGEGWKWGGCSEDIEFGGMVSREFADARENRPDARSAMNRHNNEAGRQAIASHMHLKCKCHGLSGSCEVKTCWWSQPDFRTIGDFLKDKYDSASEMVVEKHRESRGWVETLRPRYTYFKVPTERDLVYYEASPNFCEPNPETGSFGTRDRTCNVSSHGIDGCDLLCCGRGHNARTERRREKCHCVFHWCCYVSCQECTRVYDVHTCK
# Chain of Melanocortin receptor 4 (P32245 whole entry): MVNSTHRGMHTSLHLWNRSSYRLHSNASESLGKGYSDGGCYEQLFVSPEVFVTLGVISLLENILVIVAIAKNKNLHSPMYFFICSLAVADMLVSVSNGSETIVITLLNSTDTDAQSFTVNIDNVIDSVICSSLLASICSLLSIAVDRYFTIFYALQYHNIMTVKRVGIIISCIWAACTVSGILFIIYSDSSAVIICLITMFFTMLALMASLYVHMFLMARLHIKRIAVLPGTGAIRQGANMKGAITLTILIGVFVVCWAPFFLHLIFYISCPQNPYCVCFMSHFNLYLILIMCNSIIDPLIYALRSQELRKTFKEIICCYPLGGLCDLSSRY
# T2 sequence (P63165 whole entry): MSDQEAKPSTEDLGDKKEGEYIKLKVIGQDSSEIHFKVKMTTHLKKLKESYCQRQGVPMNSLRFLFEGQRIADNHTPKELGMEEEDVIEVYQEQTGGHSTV
# Chain of Eukaryotic translation initiation factor 4E (P63073 whole entry): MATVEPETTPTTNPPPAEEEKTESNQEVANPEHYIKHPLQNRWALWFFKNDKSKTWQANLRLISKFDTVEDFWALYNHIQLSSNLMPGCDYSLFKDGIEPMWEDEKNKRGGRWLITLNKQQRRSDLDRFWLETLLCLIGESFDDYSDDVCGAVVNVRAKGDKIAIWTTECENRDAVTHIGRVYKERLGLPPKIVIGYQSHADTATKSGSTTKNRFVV
# Chain of Induced myeloid leukemia cell differentiation protein Mcl-1 (Q07820 whole entry): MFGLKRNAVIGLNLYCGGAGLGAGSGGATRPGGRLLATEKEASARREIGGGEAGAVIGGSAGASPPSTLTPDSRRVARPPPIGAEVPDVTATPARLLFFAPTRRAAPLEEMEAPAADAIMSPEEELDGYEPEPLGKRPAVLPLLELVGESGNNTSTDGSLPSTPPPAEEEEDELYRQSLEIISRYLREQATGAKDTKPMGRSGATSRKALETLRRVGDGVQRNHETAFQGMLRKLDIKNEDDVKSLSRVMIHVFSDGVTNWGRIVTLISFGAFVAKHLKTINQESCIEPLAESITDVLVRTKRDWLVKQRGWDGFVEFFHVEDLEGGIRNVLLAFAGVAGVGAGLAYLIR
# Chain of Genome polyprotein (P29990 2492-3391 limits assumed): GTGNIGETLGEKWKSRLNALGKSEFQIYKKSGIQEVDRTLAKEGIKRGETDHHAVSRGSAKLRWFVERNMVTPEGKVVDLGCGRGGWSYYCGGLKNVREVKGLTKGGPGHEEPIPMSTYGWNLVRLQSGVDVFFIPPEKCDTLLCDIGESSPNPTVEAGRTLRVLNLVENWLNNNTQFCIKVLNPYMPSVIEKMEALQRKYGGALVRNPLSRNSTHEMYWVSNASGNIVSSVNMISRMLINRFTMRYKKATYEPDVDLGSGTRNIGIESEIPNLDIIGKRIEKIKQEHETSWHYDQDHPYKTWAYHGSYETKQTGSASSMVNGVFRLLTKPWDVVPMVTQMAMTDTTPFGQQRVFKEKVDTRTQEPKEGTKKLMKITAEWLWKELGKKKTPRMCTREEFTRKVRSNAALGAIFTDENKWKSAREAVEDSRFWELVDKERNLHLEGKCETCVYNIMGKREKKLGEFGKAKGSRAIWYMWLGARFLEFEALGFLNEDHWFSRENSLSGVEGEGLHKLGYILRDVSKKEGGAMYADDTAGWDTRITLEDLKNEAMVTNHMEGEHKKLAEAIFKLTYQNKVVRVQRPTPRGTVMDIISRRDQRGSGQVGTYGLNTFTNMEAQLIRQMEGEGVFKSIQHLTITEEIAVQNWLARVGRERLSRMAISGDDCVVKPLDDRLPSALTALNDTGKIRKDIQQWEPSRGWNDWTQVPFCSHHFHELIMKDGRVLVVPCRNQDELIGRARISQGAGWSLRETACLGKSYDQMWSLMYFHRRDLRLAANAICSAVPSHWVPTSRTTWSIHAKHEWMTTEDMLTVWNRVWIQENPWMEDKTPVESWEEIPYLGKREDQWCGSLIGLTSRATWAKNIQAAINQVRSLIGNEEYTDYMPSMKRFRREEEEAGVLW
smiles,measurement,setting,value
CCCCCCCCCCCCCCCCCCOP(=O)([O-])OCC[N+](C)(C)C [OCTADECYLPHOSPHONOCHOLINE],GI50,SN12K1,13.7 µM (inactive)
same,GI50,P388/ADR,11.1 µM (inactive)
same,GI50,P388,3.78 µM (inactive)
CCN1C(=O)/C(=C\c2ccc(-c3ccc([N+](=O)[O-])cc3OC)o2)S/C1=N\c1cccc(C(=O)O)c1,EC50,Streptokinase A,> 150 µM (not active)
same,EC50,Streptococcus,8.58 µM (active)
same,IC50,Genome polyprotein,64.5 µM (active)
same,IC50,[1],> 66.6 µM (inactive)
same,CC50,Vero,> 40 µM (active)
same,IC50,[2],50 µM (inactive)
same,IC50,Aminopeptidase N,2.2 µM (active)
same,IC50,[3],25.8 µM (inactive)
same,IC50,[4],6.7 µM (active)
same,EC50,[5],3.17 µM (active)
Cc1ccnc(NC(=O)Nc2ccc3c(c2)OCO3)c1,EC50,cells [6],> 29.9 µM (inactive)
same,IC50,[7],> 29.9 µM (inactive)
same,IC50,cells [8],> 29.9 µM (inactive)
same,EC50,[9],> 29.9 µM (inactive)
C=C1C(=O)O[C@@H]2[C@H](O)[C@@H](C)[C@@H]3C=CC(=O)[C@@]3(C)[C@H](OC(=O)C=C(C)C)[C@H]12,GI50,SN12K1,0.681 µM (active)
same,GI50,P388/ADR,0.141 µM (active)
same,GI50,P388,0.194 µM (active)
O=C(Nc1nc2cc(Cl)ccc2s1)C1CCCN(S(=O)(=O)c2cccc3cccnc23)C1 (stereo unspecified),IC50,[10],> 64.6 µM (inactive)
same,IC50,Melanocortin receptor 4,> 64.6 µM (inactive)
O=C(O)C1CCCCC1C(=O)NCCc1ccc(F)cc1 (stereo unspecified),EC50,cells [6],> 29.9 µM (inactive)
same,IC50,[7],8.15 µM (active)
same,IC50,cells [8],> 29.9 µM (inactive)
same,EC50,[9],1.39 µM (active)
CCN1CCN(C2=C(NS(=O)(=O)c3ccccc3)C(=O)c3ccccc3C2=O)CC1,CC50,Vero,24.8 µM (active)
same,AC50,INS1,5.62 µM (active)
same,IC50,[11],19.1 µM (active)
O=C(NC(c1cccnc1)C(F)(F)F)c1cc(COc2ccc3c(c2)CCCC3)on1 (stereo unspecified),IC50,Protein Wnt-3a,40.4 µM (inactive)
same,AC50,INS1,3.48 µM (active)
Nc1nc(=O)c2c([nH]1)NCC(CNc1ccc(C(=O)N[C@@H](CCC(=O)O)C(=O)O)cc1)N2C=O (stereo partly specified) [LEUCOVORIN CALCIUM],GI50,SN12K1,> 125 µM (inactive)
same,GI50,P388/ADR,> 124 µM (inactive)
same,GI50,P388,> 125 µM (inactive)
c1ccc(COc2ccc(-c3cc4nc(NCCN5CCOCC5)ccn4n3)cc2)cc1,IC50,[10],> 64.6 µM (inactive)
same,IC50,Melanocortin receptor 4,20 µM (inactive)
Cc1cccc(CCNCc2cc3cc(C)cc(C)c3nc2O)c1,EC50,cells [6],> 29.9 µM (inactive)
same,IC50,[7],1.84 µM (active)
same,IC50,cells [8],> 29.9 µM (inactive)
same,EC50,[9],0.73 µM (active)
CCN(c1ccc(OCC(=O)OCC(=O)c2c(N)n(C)c(=O)n(C)c2=O)cc1)S(=O)(=O)c1ccccc1,IC50,[10],> 64.6 µM (inactive)
same,IC50,Melanocortin receptor 4,> 7.18 µM (active)
C(#Cc1ccccc1)C[N+]1(CC#Cc2ccccc2)CCCC1,IC50,Protein Wnt-3a,8.34 µM (active)
ClCCCN1CCN(CCCl)CC1,GI50,SN12K1,109 µM (inactive)
same,GI50,P388/ADR,27 µM (inactive)
same,GI50,P388,17.7 µM (inactive)
